Test results from PMC3198391, “Mechanism of Disruption of the Amt-GlnK Complex by PII-Mediated Sensing of 2-Oxoglutarate” (PLoS ONE, 2011).

How the values were obtained:
[1] = molecular target: T1, Af-GlnK3 (Archaeoglobus fulgidus, UniProt O28524, F97P); assay: isothermal titration calorimetry, one-site model; format: binding; settings: read-out: Dissociation constantKD
T1 construct: full length, pET21a, C-terminal pentahistidine tag kept, three Ala (113-115) inserted in linker before tag; E. coli BL21(DE3) Rosetta; 13 kDa monomer, homotrimer; forward primer encodes MKMVVAVI, reverse end TGDEEV; sites between monomers
T1 sequence (O28524 12-120 F97P): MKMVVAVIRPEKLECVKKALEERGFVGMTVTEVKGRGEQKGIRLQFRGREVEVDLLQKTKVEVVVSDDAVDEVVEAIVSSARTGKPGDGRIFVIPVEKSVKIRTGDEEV
Source text: (§1) isothermal titration calorimetry, one-site model on Af-GlnK3

[2] = molecular target: T2, Af-GlnK3 (Archaeoglobus fulgidus, UniProt O28524, F97I); assay: isothermal titration calorimetry, one-site model; format: binding; settings: read-out: Dissociation constantKD
T2 construct: full length, pET21a, C-terminal pentahistidine tag kept, three Ala (113-115) inserted in linker before tag; E. coli BL21(DE3) Rosetta; 13 kDa monomer, homotrimer; forward primer encodes MKMVVAVI, reverse end TGDEEV; sites between monomers
T2 sequence (O28524 12-120 F97I): as the sequence (O28524 12-120 F97P) above, with P86I counted along it
Source text: as §1

[3] = molecular target: T3, Af-GlnK3 (Archaeoglobus fulgidus, UniProt O28524); assay: isothermal titration calorimetry, one-site model; format: binding; settings: read-out: Dissociation constantKD
T3 construct: full length, pET21a, C-terminal pentahistidine tag kept, three Ala (113-115) inserted in linker before tag; E. coli BL21(DE3) Rosetta; 13 kDa monomer, homotrimer; forward primer encodes MKMVVAVI, reverse end TGDEEV; sites between monomers
T3 sequence (O28524 12-120): as the sequence (O28524 12-120 F97P) above, with P86F counted along it
Source text: as §1

[4] = molecular target: Af-GlnK3 (Archaeoglobus fulgidus) (UniProt O28524); assay: crystal structure; vapour diffusion, sitting drop, trimer fraction from size exclusion chromatography; crystals as isolated, soaked with MgATP or MgADP, or co-crystallised with MgATP and 2-OG
[5] = molecular target: Af-GlnK3 (Archaeoglobus fulgidus) (UniProt O28524); assay: SEC; gel filtration during purification; 50 mM Tris-HCl pH 8.0, 300 mM NaCl

Af-GlnK3 (from UniProt O28524 1-120) (natural protein), sequence (O28524 whole entry): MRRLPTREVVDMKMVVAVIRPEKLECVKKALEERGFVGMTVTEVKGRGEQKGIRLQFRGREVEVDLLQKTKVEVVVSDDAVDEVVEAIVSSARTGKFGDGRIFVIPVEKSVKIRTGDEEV

Row | Compound | Kd [1] | Kd [2] | Kd [3] | stoichiometry N [4] | stoichiometry N [5]
1 | Nc1ncnc2c1ncn2[C@@H]1O[C@H](COP(=O)(O)OP(=O)(O)OP(=O)(O)O)[C@@H](O)[C@H]1O [ATP] | 128 µM | 149 µM | 338 µM | – | –
2 | Nc1ncnc2c1ncn2[C@@H]1O[C@H](COP(=O)(O)OP(=O)(O)O)[C@@H](O)[C@H]1O [ADP] | 102 µM | 373 µM | 568 µM | – | –
3 | Af-GlnK3 (from UniProt O28524 1-120) (natural protein) | – | – | – | 3 | 3
